These results are taken from EP1308501A1, “Fermented beverages comprising yeast transformed by the ATF2 gene” (Pernod-Ricard, priority 2001, dated 2003).

Where two headings read alike, the source gives them in different places.

Data set [1] addresses T1, Atf2p (Saccharomyces cerevisiae, UniProt P53296).
T1 sequence (P53296 1-535): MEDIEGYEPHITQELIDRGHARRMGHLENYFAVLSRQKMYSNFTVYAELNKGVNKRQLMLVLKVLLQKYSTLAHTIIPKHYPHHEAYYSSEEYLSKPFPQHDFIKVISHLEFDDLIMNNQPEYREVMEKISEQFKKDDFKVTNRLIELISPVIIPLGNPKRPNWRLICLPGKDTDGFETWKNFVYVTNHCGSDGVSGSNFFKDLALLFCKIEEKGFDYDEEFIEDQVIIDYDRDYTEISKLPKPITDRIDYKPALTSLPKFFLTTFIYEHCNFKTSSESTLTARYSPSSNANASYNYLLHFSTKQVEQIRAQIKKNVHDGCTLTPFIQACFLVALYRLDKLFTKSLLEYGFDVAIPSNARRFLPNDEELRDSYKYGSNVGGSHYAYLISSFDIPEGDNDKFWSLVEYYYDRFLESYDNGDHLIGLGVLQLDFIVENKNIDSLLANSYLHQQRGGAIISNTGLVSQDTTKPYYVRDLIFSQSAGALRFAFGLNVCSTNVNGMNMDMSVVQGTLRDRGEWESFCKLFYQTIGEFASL
Conditions: cited from earlier work.

Data set [2] deals with YRC1001/pRC124. Briefly: Bioconversion of alcohols added to malt medium by a strain overexpressing ATF2. It is filed as cell-based, Saccharomyces cerevisiae. As for the experimental part:
Transformation dans la souche […], sous contrôle du promoteur proTEF1, le gène ATF2 (pRC124). Les précultures sont réalisées dans du milieu liquide SC20 (Sherman, 1991) dépourvu d'uracile et selon la même procédure que dans l'exemple 3. Les cultures sont ensemencées comme décrit précédemment dans du milieu malt, cette fois non glucosé. Ce dernier est supplémenté en leucine, lysine et histidine. A ce milieu malt, on ajoute juste avant ensemencement des alcools à raison de 100 μg/ml. Après fermentation pendant 98 heures, on analyse -comme décrit précédemment- les alcools et leurs produits dérivés (esters […] correspondant à l'alcool et son ester éthylé). La capacité de bioconversion est ensuite exprimée par le rapport « ester acétylé de l'alcool ajouté »/« somme des alcools et produits dérivés ». Cette valeur donne une indication […] au milieu extérieur par la souche de levure transformée. Les résultats sont […] Tableau 4.

Data set [3] relates to production d'esters. The settings on record: six mois après la mise en bouteille; cited from earlier work.
Data set [4] has as its system alcool acétyle transférase. Conditions: partially purified enzyme, cited from earlier work.
Where [5] appears, read: alcohol added at 100 µg/ml, malt non glucosé, 98 heures, ratio ester acétylé de l'alcool ajouté / somme des alcools et produits dérivés.

For `CC(=O)[C@H]1CC[C@H]2[C@@H]3CC=C4C[C@@H](O)CC[C@]4(C)[C@H]3CC[C@]12C` [pregnénolone], in data set [1], the Michaelis-Menten constant (Km) is 0.5 µM. For the compound `OCc1ccccc1` [benzylalcool], in data set [2] (setting [5]), the “Bioconversion par YRC1001/pRC124” value is reported as 0,163. In the case of `CCCCO` [n-butanol], the “Bioconversion par YRC1001/pRC124” value in data set [2] is 0,021. With `CC(=O)OCCC(C)C` [acétate d'isoamyle], in data set [3], the “réduction des esters acétylés” value is around 2 fois. Turning to `CC(C)CCO` [isoamylalcool], the Km in data set [4] (acceptor) was 25000 µM. Besides, the “Bioconversion par YRC1001/pRC124” value in data set [2] (setting [5]) is on record as 0,045.

As to `CC(=O)SCCNC(=O)CCNC(=O)[C@H](O)C(C)(C)COP(=O)(O)OP(=O)(O)OC[C@H]1O[C@@H](n2cnc3c(N)ncnc32)[C@H](O)[C@@H]1OP(=O)(O)O` [acétyle-CoA], the Km was 1 µM in data set [1] and 25 to 40 µM in data set [4] (co-factor). On to `CC(=O)OCCc1ccccc1` [acétatede 2-phényléthyle], for which the “réduction des esters acétylés” value in data set [3] is around 2 fois.
